Data set [1] in a line: Cerebrospinal fluid (CSF) levels after oral dosing. It counts as in vivo. Conditions: p.o. dose 3 mg/kg, after 2 hr, fasted male SD rat.
The nature of data set [2]: Human microsomal stability. It counts as in vitro ADME. The procedure: The metabolic stability assay was performed by incubating each test compound (1 μM) with human liver microsomes in duplicate at 37° C. and 0.4 mg/mL protein concentration. The metabolic reaction was initiated by the addition of a NADPH-regenerating system (i.e. NADPH is the cofactor required for CYP450-mediated metabolism) and quenched at various time points over the 60 minute incubation period by the addition of acetonitrile. Control samples (containing no NADPH) were included (and quenched at 2, 30 and 60 minutes) to monitor for potential degradation in the absence of cofactor. Samples were analysed by UPLC-MS (Waters/Micromass Xevo G2 QTOF) under positive electrospray ionisation and MS spectral data acquired in a mass range of 80 to 1200 Daltons.
Test compound concentration versus time data were fitted to an exponential decay function to determine the first-order rate constant for substrate depletion. In cases where clear deviation from first-order kinetics was evident, only the initial linear portion of the profile was utilised to determine the degradation rate constant (k). Each substrate depletion rate constant was then used to calculate: [1] a degradation half-life, [2] an in vitro intrinsic clearance value (CLint, in vitro); [3] a predicted in vivo hepatic intrinsic clearance value (CLint); [4] a predicted in vivo blood clearance value (CLblood); and [5] a predicted in vivo hepatic extraction ratio (EH).
• 1) The substrate concentration employed is well below the apparent KM for substrate turnover; and, • 2) There is no significant product inhibition, nor is there any mechanism-based inactivation of enzyme. The use of hepatic microsomes in the prediction of the in vivo hepatic extraction ratio has two further inherent assumptions (Obach, 1999) which: • 1) NADPH-dependent oxidative metabolism predominates over other metabolic routes (i.e. direct conjugative metabolism, reduction, hydrolysis, etc.); and, • 2) Rates of metabolism and enzyme activities in vitro are truly reflective of those that exist in vivo. Data should be considered within these terms of reference.

As to `CC(C)c1cc(C(=O)N2CCOCC2)cc(C(C)C)c1O` [LT-01-25, (4-(hydroxy)-3,5-diisopropylphenyl)(morpholino)methanone], in data set [1], the CSF levels is on record as 95 ng/mL and the “CSF levels as multiple of EC50” value is given as “(900 × EC50)”. The half-life at 1 μM in data set [2] (human liver microsomes, read-out: t1/2 (values marked *)) was found to be 8.25 h. Further, the “Cl (values marked *)” value in data set [2] (human microsomes, 1 μM) is on record as 2.7 mL/min/kg (Cl) *.

For the origin of these results see patent publication US9676786B2, “Pharmacologically active compounds” (The University of Liverpool, priority 2013, dated 2017).
